{"source": "patent US7666644B2", "about": "“Glyphosate-N-acetyltransferase (GAT) genes” (Verdia, Inc., priority 2004, dated 2010)", "target": "non-native GAT polypeptide 25-8H7 (glyphosate-N-acetyltransferase), SEQ ID NO: 907 (Bacillus licheniformis, UniProt Q65LG7, E119R/E14D/E65Q/E67K/E68K/G37R/G38S/I132T/I135V/I15L/I19V/I53V/I91V/K101R/K144R/K58Q/L105M/L106I/L145I/L26I/L36T/L97I/M75V/R47G/R92K/T33S/T89S/V114A/Y130F/Y31F/Y45F)", "sequence (Q65LG7 entry or part of it with the stated changes)": "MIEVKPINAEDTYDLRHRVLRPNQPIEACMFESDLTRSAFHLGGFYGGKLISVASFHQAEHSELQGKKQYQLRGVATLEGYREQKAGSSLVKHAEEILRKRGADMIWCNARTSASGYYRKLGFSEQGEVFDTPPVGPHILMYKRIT", "experiment": "GAT activity with respect to glyphosate, aspartate and serine (Example 29, Table 21)", "settings": "25 mM Hepes, pH 6.8, 10% ethylene glycol", "protocol": "GAT activity of several GAT polypeptides of the present invention was evaluated with respect to a number of amino acid substrates. The GAT polypeptide, AcCoA and amino substrate were incubated in 25 mM Hepes, pH 6.8, 10% ethylene glycol in the wells of a 96-well polystyrene plate. After 30 minutes, the reactions were stopped by the addition of 30 μl of 10 mM 5,5′-dithiobis-2-nitrobenzoate (DTNB) in 500 mM Tris, pH 7.5. After 2 minutes, absorbance was read at 412 nm in a Spectramax Plus plate reader (Molecular Devices, Sunnyvale, Calif.).", "data": [{"smiles": "N[C@@H](CO)C(=O)O", "note": "[Serine, L-serine]", "values": [{"measurement": "kcat ± SE", "value": "6.47 ± 0.308", "unit": "s⁻¹"}]}]}
